Results published in ChEMBL document CHEMBL4725438, “Chiral Analogues of PFI-1 as BET Inhibitors and Their Functional Role in Myeloid Malignancies” (ACS Med Chem Lett, 2020).
Active and inactive are the calls of the source. The rule behind the calls is not given here.

What was measured:
MOLM-14 [1] = test: Inhibition of BET in human MOLM-14 cells harboring FLT3-ITD mutant assessed as increase in HEXIM1 protein expression at 5 uM measured after 24 to 48 hrs by Western blot analysis; type: cell-based; settings: time hrs 24-48
MOLM-14 [2] = test: Inhibition of BET in human MOLM-14 cells harboring FLT3-ITD mutant assessed as decrease in AURKB protein expression at 5 uM measured after 48 hrs by Western blot analysis; type: cell-based
HEL [3] = test: Inhibition of BET in human HEL cells harboring JAK2 V617F mutant assessed as increase in HEXIM1 protein expression at 5 uM measured after 24 to 48 hrs by Western blot analysis; type: cell-based; settings: time hrs 24-48
[4] = target: Bromodomain-containing protein 4 (Homo sapiens) (UniProt O60885); test: Inhibition of BRD4 in human HEL cells harboring JAK2 V617F mutant assessed as metabolic activity at 1 uM measured after 72 hrs by MTT assay relative to control; type: cell-based; set-up: Activity: scale not given: the % may be the effect or the level left
MOLM-14 [5] = test: Induction of apoptosis in human MOLM-14 cells harboring FLT3-ITD mutant assessed as cleavage of PARP-1 at 5 uM measured after 24 to 48 hrs by Western blot analysis; type: functional, cell-based; settings: time hrs 24-48
K562 [6] = test: Inhibition of BET in human K562 cells harboring BCR-ABL assessed as decrease in AURKB protein expression at 5 uM measured after 48 hrs by Western blot analysis; type: cell-based
HEL [7] = test: Induction of apoptosis in human HEL cells harboring JAK2 V617F mutant assessed as cleavage of PARP-1 at 5 uM measured after 24 to 48 hrs by Western blot analysis; type: functional, cell-based; settings: time hrs 24-48
[8] = Cytotoxicity against human CD34+ cells assessed as reduction in colony formation at 1 to 5 uM measured after 7 to 11 days; type: cell-based; settings: cd34-positive (myeloid/lymphoid) cell, dose 1-5 µM, time 7-11 day
BMMC = test: Anticlonogenic activity against AML patient derived BMMC harboring FLT3-ITD/FLT3-TKD mutant assessed as reduction in colony formation at 1 to 5 uM measured after 7 to 11 days; type: functional, tissue-based; settings: Homo sapiens, dose microM 1-5, time day 7-11
MOLM-14 [9] = test: Inhibition of BET in human MOLM-14 cells harboring FLT3-ITD mutant assessed as increase in HEXIM1 protein expression at 5 uM measured after 24 hrs by Western blot analysis; type: cell-based
[10] = target: Bromodomain-containing protein 2 (Homo sapiens) (UniProt P25440); test: Binding affinity to N-terminal His-tagged human recombinant BRD2 bromodomain 1 (71 to 194 residues) expressed in Escherichia coli assessed as change in melting temperature at 10 uM by BromoMELT assay
Chain of Bromodomain-containing protein 2 (Homo sapiens) (P25440 whole entry, looked up, the tested form may be a part): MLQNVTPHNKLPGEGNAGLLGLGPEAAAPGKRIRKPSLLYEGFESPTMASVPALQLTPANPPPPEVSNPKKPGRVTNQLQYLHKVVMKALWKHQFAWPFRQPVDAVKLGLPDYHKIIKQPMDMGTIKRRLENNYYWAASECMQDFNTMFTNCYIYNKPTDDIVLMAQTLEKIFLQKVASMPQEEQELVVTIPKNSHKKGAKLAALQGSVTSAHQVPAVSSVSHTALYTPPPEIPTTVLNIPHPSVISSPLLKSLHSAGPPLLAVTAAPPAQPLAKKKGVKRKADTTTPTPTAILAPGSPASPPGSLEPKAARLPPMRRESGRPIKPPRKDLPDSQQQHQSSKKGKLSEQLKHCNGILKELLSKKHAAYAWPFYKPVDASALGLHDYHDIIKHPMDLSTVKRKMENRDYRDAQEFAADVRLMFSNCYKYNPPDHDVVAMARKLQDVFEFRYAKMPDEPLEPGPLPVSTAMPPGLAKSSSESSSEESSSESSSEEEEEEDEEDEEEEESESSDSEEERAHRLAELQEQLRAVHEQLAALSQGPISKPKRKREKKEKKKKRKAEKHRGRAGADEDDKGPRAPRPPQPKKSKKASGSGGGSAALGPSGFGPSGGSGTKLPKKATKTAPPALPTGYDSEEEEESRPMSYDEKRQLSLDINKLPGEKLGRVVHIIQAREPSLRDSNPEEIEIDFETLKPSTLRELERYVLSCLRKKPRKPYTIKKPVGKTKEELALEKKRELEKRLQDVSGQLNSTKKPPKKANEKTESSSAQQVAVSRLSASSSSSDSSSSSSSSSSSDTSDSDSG

HEL [11] = test: Inhibition of BET in human HEL cells harboring JAK2 V617F mutant assessed as increase in HEXIM1 protein expression at 5 uM measured after 24 hrs by Western blot analysis; type: cell-based
[12] = Cytotoxicity against human PBMC assessed as reduction in colony formation at 1 to 5 uM measured after 7 to 11 days; type: tissue-based; settings: dose 1-5 µM, time 7-11 day
K562 [13] = test: Inhibition of BET in human K562 cells harboring BCR-ABL assessed as increase in HEXIM1 protein expression at 5 uM measured after 24 to 48 hrs by Western blot analysis; type: cell-based; settings: time hrs 24-48
[14] = target: Bromodomain-containing protein 4 (Homo sapiens) (UniProt O60885); test: Inhibition of BRD4 in human MOLM-14 cells harboring FLT3-ITD mutant assessed as decrease in metabolic activity at 10 uM measured after 72 hrs by MTT assay; type: cell-based
[15] = target: Bromodomain-containing protein 4 (Homo sapiens) (UniProt O60885); test: Inhibition of BRD4 in human HEL cells harboring JAK2 V617F mutant assessed as decrease in metabolic activity at 10 uM measured after 72 hrs by MTT assay; type: cell-based
[16] = target: Bromodomain-containing protein 4 (Homo sapiens) (UniProt O60885); test: Inhibition of BRD4 in human K562 cells harboring BCR-ABL assessed as decrease in metabolic activity at 10 uM measured after 72 hrs by MTT assay; type: cell-based
[17] = target: Bromodomain-containing protein 4 (Homo sapiens) (UniProt O60885); test: Inhibition of BRD4 in human K562 cells harboring BCR-ABL assessed as decrease in metabolic activity at 0.01 to 20 uM measured after 72 hrs by MTT assay; type: cell-based; settings: dose microM 0.01-20, time 72.0 hrs
[18] = target: Bromodomain-containing protein 4 (Homo sapiens) (UniProt O60885); test: Inhibition of BRD4 in human HEL cells harboring JAK2 V617F mutant assessed as cell cycle arrest by measuring increase in cell population at sub-G1 phase at 1 to 5 uM measured after 24 hrs by propidium iodide staining based FACS analysis; settings: dose microM 1-5, time 24.0 hrs
[19] = target: Bromodomain-containing protein 4 (Homo sapiens) (UniProt O60885); test: Inhibition of BRD4 in human MOLM-14 cells harboring FLT3-ITD mutant assessed as metabolic activity at 1 uM measured after 72 hrs by MTT assay relative to control; type: cell-based; set-up: scale not given: the % may be the effect or the level left
[20] = target: Bromodomain-containing protein 4 (Homo sapiens) (UniProt O60885); test: Inhibition of BRD4 in human MOLM-14 cells harboring FLT3-ITD mutant assessed as cell cycle arrest by measuring decrease in cell population at S phase at 1 to 5 uM measured after 24 hrs by propidium iodide staining based FACS analysis; settings: dose microM 1-5, time 24.0 hrs
[21] = target: Bromodomain-containing protein 4 (Homo sapiens) (UniProt O60885); test: Inhibition of BRD4 in human K562 cells harboring BCR-ABL assessed as reduction in cell proliferation at 1 to 5 uM after 72 hrs by tryphan blue staining based assay; settings: dose microM 1-5, time 72.0 hrs
[22] = target: Bromodomain-containing protein 4 (Homo sapiens) (UniProt O60885); test: Binding affinity to N-terminal His-tagged human recombinant BRD4 bromodomain 1 (44-170 residues) expressed in Escherichia coli assessed as change in melting temperature at 10 uM by BromoMELT assay
K562 [23] = test: Induction of apoptosis in human K562 cells harboring BCR-ABL assessed as cleavage of PARP-1 at 5 uM measured after 24 to 48 hrs by Western blot analysis; type: functional, cell-based; settings: time hrs 24-48
HEL [24] = test: Inhibition of BET in human HEL cells harboring JAK2 V617F mutant assessed as decrease in AURKB protein expression at 5 uM measured after 24 to 48 hrs by Western blot analysis; type: cell-based; settings: time hrs 24-48
[25] = target: Bromodomain-containing protein 4 (Homo sapiens) (UniProt O60885); test: Inhibition of BRD4 in human MOLM-14 cells harboring FLT3-ITD mutant assessed as reduction in cell proliferation at 1 to 5 uM after 72 hrs by tryphan blue staining based assay; settings: dose microM 1-5, time 72.0 hrs
[26] = target: Bromodomain-containing protein 4 (Homo sapiens) (UniProt O60885); test: Inhibition of BRD4 in human HEL cells harboring JAK2 V617F mutant assessed as cell cycle arrest by measuring increase in cell population at G0/G1 phase at 1 to 5 uM measured after 24 hrs by propidium iodide staining based FACS analysis; settings: dose microM 1-5, time 24.0 hrs
MOLM-14 [27] = test: Inhibition of BET in human MOLM-14 cells harboring FLT3-ITD mutant assessed as decrease in AURKB protein expression at 5 uM measured after 24 to 48 hrs by Western blot analysis; type: cell-based; settings: time hrs 24-48
MOLM-14 [28] = test: Inhibition of BET in human MOLM-14 cells harboring FLT3-ITD mutant assessed as increase in HEXIM1 protein expression at 5 uM preincubated in medium for 24 to 48 hrs followed by cell addition and measured after 24 hrs by Western blot analysis; type: cell-based; settings: time 96.0 hrs
[29] = target: Bromodomain-containing protein 4 (Homo sapiens) (UniProt O60885); test: Inhibition of BRD4 in human MOLM-14 cells harboring FLT3-ITD mutant assessed as cell viability at 5 uM measured after 72 hrs by tryphan blue staining based assay relative to control
[30] = target: Bromodomain-containing protein 4 (Homo sapiens) (UniProt O60885); test: Inhibition of BRD4 in human MOLM-14 cells harboring FLT3-ITD mutant assessed as cell cycle arrest by measuring increase in cell population at sub-G1 phase at 1 to 5 uM measured after 24 hrs by propidium iodide staining based FACS analysis; settings: dose microM 1-5, time 24.0 hrs
[31] = target: Bromodomain-containing protein 4 (Homo sapiens) (UniProt O60885); test: Inhibition of BRD4 in human HEL cells harboring JAK2 V617F mutant assessed as cell viability at 5 uM measured after 72 hrs by tryphan blue staining based assay relative to control
[32] = target: Bromodomain-containing protein 4 (Homo sapiens) (UniProt O60885); test: Inhibition of BRD4 in human HEL cells harboring JAK2 V617F mutant assessed as cell cycle arrest by measuring decrease in cell population at S phase at 1 to 5 uM measured after 24 hrs by propidium iodide staining based FACS analysis; settings: dose microM 1-5, time 24.0 hrs
K562 [33] = test: Inhibition of BET in human K562 cells harboring BCR-ABL assessed as increase in HEXIM1 protein expression at 5 uM preincubated in medium for 24 to 48 hrs followed by cell addition and measured after 24 hrs by Western blot analysis; type: cell-based; settings: time 96.0 hrs
[34] = target: Bromodomain-containing protein 4 (Homo sapiens) (UniProt O60885); test: Inhibition of BRD4 in human HEL cells harboring JAK2 V617F mutant assessed as reduction in cell proliferation at 1 to 5 uM after 72 hrs by tryphan blue staining based assay; settings: dose microM 1-5, time 72.0 hrs
[35] = target: Bromodomain-containing protein 4 (Homo sapiens) (UniProt O60885); test: Inhibition of BRD4 in human MOLM-14 cells harboring FLT3-ITD mutant assessed as cell cycle arrest by measuring increase in cell population at G0/G1 phase at 1 to 5 uM measured after 24 hrs by propidium iodide staining based FACS analysis; settings: dose microM 1-5, time 24.0 hrs
HEL [36] = test: Inhibition of BET in human HEL cells harboring JAK2 V617F mutant assessed as increase in HEXIM1 protein expression at 5 uM preincubated in medium for 24 to 48 hrs followed by cell addition and measured after 24 hrs by Western blot analysis; type: cell-based; settings: time 96.0 hrs

CN1Cc2cc(N=[S@](C)(=O)c3ccccc3)ccc2NC1=O
inhibition (MOLM-14 [1]): inactive
inhibition (MOLM-14 [2]): Active
inhibition (HEL [3]): inactive
inhibition [4]: inactive
Activity (MOLM-14 [5]): inactive
inhibition (K562 [6]): Active
Activity (HEL [7]): inactive

COc1ccccc1S(=O)(=O)Nc1ccc2c(c1)CN(C)C(=O)N2
Activity [8]: Toxic
Activity (BMMC): Active
inhibition (MOLM-14 [9]): Active
ΔTm [10]: 3.5 °C
inhibition (HEL [11]): Active
Activity [12]: Toxic
inhibition (K562 [13]): Active

CN1Cc2cc(N=S(C)(=Nc3ccccc3)c3ccccc3)ccc2NC1=O (stereo unspecified)
inhibition [14]: Active
inhibition [15]: Active
inhibition [16]: inactive

CN1Cc2cc(N=[S@@](C)(=O)c3ccccc3)ccc2NC1=O
Activity [8]: Toxic
inhibition [17]: inactive
Activity (BMMC): Active
inhibition [18]: Active
Activity [19]: 55%
inhibition [20]: Active
inhibition (MOLM-14 [9]): Active
ΔTm [10]: 3.5 °C
inhibition [21]: Active
ΔTm [22]: 5 °C
Activity (K562 [23]): inactive
inhibition (HEL [24]): Active
inhibition [25]: Active
inhibition [26]: Active
inhibition (MOLM-14 [27]): Active
inhibition (MOLM-14 [28]): Active
Activity [4]: 37%
Activity [29]: 57%
inhibition (HEL [11]): Active
Activity [12]: Toxic
inhibition [30]: Active
inhibition (K562 [13]): Active
Activity (MOLM-14 [5]): Active
Activity [31]: 55%
Activity (HEL [7]): Active
inhibition [32]: Active
inhibition (K562 [33]): Active
inhibition [34]: Active
inhibition [35]: Active
inhibition (HEL [36]): Active

CN=S(C)(=Nc1ccc2c(c1)CN(C)C(=O)N2)c1ccccc1 (stereo unspecified)
inhibition [14]: Active
inhibition [15]: Active
inhibition [16]: inactive

COc1ccccc1S(C)(=O)=Nc1ccc2c(c1)CN(C)C(=O)N2 (stereo unspecified)
inhibition [14]: Active
inhibition [15]: Active
inhibition [16]: inactive

CN1Cc2cc(N=S(C)(=N)c3ccccc3)ccc2NC1=O (stereo unspecified)
inhibition [14]: Active
inhibition [15]: Active
inhibition [16]: inactive
